Results on 6 molecules are retold here after patent US20110288152A1, “PSMA BINDING LIGAND-LINKER CONJUGATES AND METHODS FOR USING” (Purdue Research Foundation, priority 2008, published 2011).

The structures appear in SMILES notation. Starred links: 1 amine or outer side, 2 acyl side, 3 side chain; linkers in the order of their positions; H or OH if unused. Non-standard residues stand in square brackets, D forms with d. Residues, ends and D or L forms follow the SMILES beside them. Groups on a side chain read outwards from the residue. γGlu = O=C(O)[C@H](CCC(=O)[*:2])N[*:1]; Dap = NC[C@H](N)C(=O)O; Aoc = NCCCCCCCC(=O)O; CO = O=C([*:1])[*:2]

The target in test [1] is T1, PSMA on LNCaP cells (Homo sapiens, UniProt Q04609).
T1 construct: LNCaP cells (a human prostate cancer cell line over-expressing PSMA); host or cells: LNCaP
T1 sequence (Q04609 whole entry): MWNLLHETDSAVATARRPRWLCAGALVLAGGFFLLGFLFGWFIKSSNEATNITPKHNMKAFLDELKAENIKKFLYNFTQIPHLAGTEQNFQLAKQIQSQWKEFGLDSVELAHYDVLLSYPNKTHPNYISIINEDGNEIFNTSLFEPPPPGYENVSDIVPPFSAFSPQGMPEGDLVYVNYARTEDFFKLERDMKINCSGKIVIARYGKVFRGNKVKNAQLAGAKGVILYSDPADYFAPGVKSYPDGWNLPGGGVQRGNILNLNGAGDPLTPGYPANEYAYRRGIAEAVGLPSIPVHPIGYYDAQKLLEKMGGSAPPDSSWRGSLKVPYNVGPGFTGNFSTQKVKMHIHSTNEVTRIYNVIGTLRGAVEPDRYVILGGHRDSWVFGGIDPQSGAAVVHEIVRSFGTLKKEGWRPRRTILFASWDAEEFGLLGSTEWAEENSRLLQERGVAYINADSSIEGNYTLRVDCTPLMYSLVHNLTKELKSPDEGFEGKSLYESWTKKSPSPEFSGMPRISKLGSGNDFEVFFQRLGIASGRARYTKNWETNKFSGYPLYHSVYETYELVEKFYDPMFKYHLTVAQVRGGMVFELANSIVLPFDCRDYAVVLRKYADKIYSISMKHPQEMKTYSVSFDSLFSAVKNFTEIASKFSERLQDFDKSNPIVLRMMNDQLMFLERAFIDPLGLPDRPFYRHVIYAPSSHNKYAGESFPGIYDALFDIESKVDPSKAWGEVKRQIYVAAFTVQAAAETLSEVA
In words: Spacer-dependent binding studies of DUPA-Linker-99mTc compounds on LNCaP cells. The conditions noted are these: 37° C., 1 hour, 0 nM-1280 nM, read-out: Kd from cell bound radioactivity versus concentration of DUPA-Linker-99Tc imaging agents. On the procedure: Cells were then incubated with increasing concentrations of SK60-99 mTc (zero atom spacer), SK62-99 mTc (7 atom spacer), SK28-99 mTc (14 atom spacer), SK38-99 mTc (16 atom spacer) and SK57-99 mTc (24 atom spacer) from 0 nM-1280 nM (triplicates for each concentration) in a 5%-CO2 atmosphere at 37° C. for 1 hour. Also, in separate plates, cells was incubated with 50 uM PMPA in a 5%-CO2 atmosphere at 37° C. for 30 minutes and then incubated with increasing concentration of SK60-99 mTc (zero atom spacer), SK62-99 mTc (7 atom spacer), SK28-99 mTc (14 atom spacer), SK38-99 mTc (16 atom spacer) and SK57-99 mTc (24 atom spacer) from 0 nM-1280 nM (triplicates for each concentration) in a 5%-CO2 atmosphere at 37° C. for 1 hour (competition studies; data not shown). […] The plot of cell bound radioactivity verses concentration of the radiolabeled compound was used to calculate the Kd value. The plot of % saturation verses concentration of the radiolabeled compound as well as the plot for Kd verses spacer length are shown (FIGS. 4 and 5).

In test [2] the target is T1, PSMA on LNCaP cells. Put plainly: In vitro binding studies using LNCaP cells and SK28-99mTc, with and without excess PMPA. The conditions noted are these: 37° C., 1 hour, 0 nM-450 nM, read-out: Kd from cell bound radioactivity versus concentration. The procedure:
Cells of one 24-well plate were incubated with increasing concentrations of SK28-99 mTc from 0 nM-450 nM (triplicates for each concentration) in a 5%-CO2 atmosphere at 37° C. for 1 hour. Cells of the second 24-well plate were incubated with 50 uM PMPA in a 5%-CO2 atmosphere at 37° C. for 30 minutes, then incubated with increasing concentrations of SK28-99 mTc from 0 nM-450 nM (triplicates for each concentration) in a 5%-CO2 atmosphere at 37° C. for 1 hour (competition study). […] The competition study was used to determine the binding specificity of the ligand (DUPA) to the PSMA (FIG. 1).
LNCaP cells (150,000 cells/well) were seeded onto 24-well Falcon plates and allowed to form confluent monolayers over 48 h. Spent medium in each well was replaced with fresh medium (0.5 mL) containing increasing concentrations of DUPA-99 mTc in the presence (▴) or absence (▪) of excess PMPA. After incubating for 1 h at 37° C., cells were rinsed with culture medium (2×1.0 mL) and tris buffer (1×1.0 mL) to remove any unbound radioactivity. After suspending cells in tris buffer (0.5 mL), cell bound radioactivity was counted using a γ-counter (Packard, Packard Instrument Company). The dissociation constant (KD) was calculated using a plot of cell bound radioactivity versus the concentration of the radiotracer using nonlinear regression in GraphPad Prism 4. Error bars represent 1 standard deviation (n=3). […]

Test [3] addresses T1, PSMA on LNCaP cells. In words: Quantification of PSMA molecules on LNCaP cells (cell bound radioactivity at saturation). Type of test: cell-based. The conditions noted are these: for cell bound radioactivity at the saturation point: 1 hour. On the procedure:
Cells were then incubated with increasing concentrations of SK28-99 mTc from 0 nM-450 nM (triplicates for each concentration) in a 5%-CO2 atmosphere at 4° C. or at 37° C. for 1 hour. […] The radioactivity of a 30 nM sample of SK28-99 mTc (20 uL) was counted. At 4° C. (to prevent endocytosis of PSMA), the number of moles in the 30 nM sample=30 nM×20 uL=(30×10-9 mol/L)×(20×10-6 L)=6×10-13 mol. The number of atoms in the 30 nM sample=(6×10-13 mol)×(6.023×1023 atom/mol)=3.6×1011 atom. The radio count of 20 uL of the 30 nM sample=20477 cpm (cpm/atom=3.6×1011/20477=1.76×107). The cell bound radioactivity at the saturation point at 4° C.=12 000 cpm. The number of atoms at the saturation point=(1.76×107 atom)×(12 000 cpm). The number of cells/well=245,000.
The cell bound radioactivity at the saturation point at 37° C.=33,000 cpm (approximately three fold higher than at 4° C.).

For the next test, the target named is PSMA (Homo sapiens, UniProt Q04609). The conditions noted are these: urea PSMA ligands of formula drawing 51, R^1 varied; cited from earlier work.
PSMA, sequence (Q04609 whole entry, species assumed): as the sequence (Q04609 whole entry) above

With `N[C@@H](CNC(=O)CC[C@H](NC(=O)N[C@@H](CCC(=O)O)C(=O)O)C(=O)O)C(=O)N[C@@H](CC(=O)O)C(=O)N[C@@H](CS)C(=O)O` [0-atom linker] (H-[Dap]([γGlu-CO-Glu])-Asp-Cys-OH), the Kd at PSMA on LNCaP cells [1] was 171 nM.

`N[C@@H](CNC(=O)[C@H](Cc1ccccc1)NC(=O)CC[C@H](NC(=O)CC[C@H](NC(=O)N[C@@H](CCC(=O)O)C(=O)O)C(=O)O)C(=O)O)C(=O)N[C@@H](CC(=O)O)C(=O)N[C@@H](CS)C(=O)O` [7-atom linker] (H-[Dap]([Phe-γGlu-γGlu-CO-Glu])-Asp-Cys-OH): the Kd at PSMA on LNCaP cells [1] was determined as 68 nM.

For `N[C@@H](CNC(=O)CC[C@H](NC(=O)[C@H](Cc1ccccc1)NC(=O)CCCCCCCNC(=O)CC[C@H](NC(=O)N[C@@H](CCC(=O)O)C(=O)O)C(=O)O)C(=O)O)C(=O)N[C@@H](CC(=O)O)C(=O)N[C@@H](CS)C(=O)O` [16-atom linker] (H-[Dap]([γGlu-Phe-Aoc-γGlu-CO-Glu])-Asp-Cys-OH), the Kd on PSMA on LNCaP cells [1] was found to be 40 nM.

For the molecule `N[C@@H](CNC(=O)[C@H](Cc1ccccc1)NC(=O)[C@H](Cc1ccccc1)NC(=O)CCCCCCCNC(=O)CC[C@H](NC(=O)N[C@@H](CCC(=O)O)C(=O)O)C(=O)O)C(=O)N[C@@H](CC(=O)O)C(=O)N[C@@H](CS)C(=O)O` [SK28-^99mTc, metal not drawn] (H-[Dap]([Phe-Phe-Aoc-γGlu-CO-Glu])-Asp-Cys-OH), the results for the Kd on PSMA on LNCaP cells [1] and on PSMA on LNCaP cells [2] were 15 nM and 18.1 nM, respectively. In addition, the “cell bound radioactivity at saturation, 37° C. relative to 4° C.” value on PSMA on LNCaP cells [3] is on record as “approximately three”. For the same molecule, the “cell bound radioactivity at the saturation point” value on PSMA on LNCaP cells [3] (4° C.) is 12 000 cpm; at PSMA on LNCaP cells [3] (37° C.) it was 33,000 cpm.

As usually defined, the Ki is a dissociation constant, usually derived from enzyme kinetics or from competition with a known ligand. For `O=C(O)CCC(NC(=O)NC(CS)C(=O)O)C(=O)O` (stereo not shown) [drawing 52 (R = H)], the Ki at PSMA was 6.9 nM.

For the molecule `CC(C)(C)SCC(NC(=O)NC(CCC(=O)O)C(=O)O)C(=O)O` (stereo not shown) [drawing 52 (R = tert-Bu)], the Ki at PSMA is 29 nM.
